Molecules are shown by their SMILES. pIC50: −log10 of the molar value. Bounds are passed on as bounds.

Usually pIC50 stands for −log10 of the IC50, conventionally taken in molar units.

One test has as its target T1, Chk1 (Homo sapiens, UniProt O14757).
T1 construct: purchased Upstate Biotechnology
T1 sequence (O14757 1-476): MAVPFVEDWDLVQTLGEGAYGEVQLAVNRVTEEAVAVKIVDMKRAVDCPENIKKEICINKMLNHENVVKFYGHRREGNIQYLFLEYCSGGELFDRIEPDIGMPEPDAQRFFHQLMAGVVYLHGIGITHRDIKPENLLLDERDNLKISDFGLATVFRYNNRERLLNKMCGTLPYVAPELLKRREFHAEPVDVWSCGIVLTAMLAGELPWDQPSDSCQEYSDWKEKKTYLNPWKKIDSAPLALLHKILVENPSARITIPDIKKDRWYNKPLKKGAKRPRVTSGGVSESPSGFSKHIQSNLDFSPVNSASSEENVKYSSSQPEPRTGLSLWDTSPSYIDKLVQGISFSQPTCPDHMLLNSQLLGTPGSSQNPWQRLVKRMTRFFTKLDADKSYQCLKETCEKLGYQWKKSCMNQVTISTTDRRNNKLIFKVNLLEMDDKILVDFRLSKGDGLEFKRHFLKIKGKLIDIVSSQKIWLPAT
In words: Chk1 kinase assay: incorporation of γ-33P ATP into immobilized myelin basic protein. Type of test: biochemical. As to conditions: Table 11, Chk1 only; class symbols A-D; read-out: Chk1 IC50. A digest of the protocol:
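Plates coated with MBP, then kinase reactions in Hepes pH 7.6 buffer with 10 mM MgCl2 and 1% DMSO were started by adding unlabeled plus γ-33P ATP (10 μM for Chk1 at 10 nM enzyme; 30 μM for Chk2 at 20 nM enzyme). After 1 h at room temperature, plates were washed and counted.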
Take `Nc1ncc(-c2cccc(CN[C@H]3CCc4ccccc43)c2)nc1C(=O)NC1CCCCNC1` (stereo partly drawn) [Example 947, 3-amino-N-azepan-3-yl-6-(3-{[(1S)-2,3-dihydro-1H-inden-1-ylamino]methyl}phenyl)pyrazine-2-carboxamide]: the pIC50 is over 7.30.
On the same count and under the same terms, to `Nc1ncc(-c2cccc(C(=O)NCc3ccc(Cl)cc3F)c2)nc1-c1nc([C@H]2CCCNC2)n[nH]1` [Example 820, 3-(5-amino-6-{3-[(3S)-piperidin-3-yl]-1H-1,2,4-triazol-5-yl}pyrazin-2-yl)-N-[(4-chloro-2-fluorophenyl)methyl]benzamide] belongs over 7.30; to `Cc1cc(Br)cc(NC(=O)NCc2cccc(-c3cnc(N)c(C(=O)N[C@H]4CCCNC4)n3)c2)c1` [Example 921, 3-amino-6-{3-[({[(3-bromo-5-methylphenyl)amino]carbonyl}amino)methyl]phenyl}-N-[(3S)-piperidin-3-yl]pyrazine-2-carboxamide], over 7.30.
The same measure, in the same setting: to `CN1CCCC(c2n[nH]c(-c3nc(-c4cccc(C(=O)NCc5c(F)cccc5Cl)c4)cnc3N)n2)C1` (stereo not shown) [Example 818, 3-{5-amino-6-[3-(1-methylpiperidin-3-yl)-1H-1,2,4-triazol-5-yl]pyrazin-2-yl}-N-[(2-chloro-6-fluorophenyl)methyl]benzamide] belongs 5.00 to 6.00; to `Nc1ncc(-c2cccc(CNC(=O)c3ccc(Br)cc3)c2)nc1C(=O)N[C@H]1CCCNC1` [Example 892, 3-amino-6-[3-({[(4-bromophenyl)carbonyl]amino}methyl)phenyl]-N-[(3S)-piperidin-3-yl]pyrazine-2-carboxamide], over 7.30; to `Cc1ccc(CNC(=O)c2cccc(-c3cnc(N)c(C(=O)N[C@H]4CCCNC4)n3)c2)c(F)c1F` [Example 858, 3-amino-6-[3-({[(2,3-difluoro-4-methylphenyl)methyl]amino}carbonyl)phenyl]-N-[(3S)-piperidin-3-yl]pyrazine-2-carboxamide], over 7.30.
Still for that read-out and setting: to `Nc1ncc(-c2cccc(C(=O)NCc3ccc(F)c(F)c3)c2)nc1C(=O)N[C@H]1CCCNC1` [Example 1011, 3-amino-6-[3-({[(3,4-difluorophenyl)methyl]amino}carbonyl)phenyl]-N-[(3S)-piperidin-3-yl]pyrazine-2-carboxamide] belongs over 7.30.
With `Nc1ncc(-c2cccc(CNC(=O)c3ccc(Br)cc3F)c2)nc1-c1nc([C@H]2CCCNC2)n[nH]1` [Example 944, N-{[3-(5-amino-6-{3-[(3S)-piperidin-3-yl]-1H-1,2,4-triazol-5-yl}pyrazin-2-yl)phenyl]methyl}-4-bromo-2-fluorobenzamide], the pIC50 is over 7.30.

The same test, now with this note: Table 11; Chk1 only; read-out: Chk1 IC50.
Take `Nc1ncc(-c2cccc(C(=O)NCc3ccccc3)c2)nc1/C=N/O` [Example 681, 3-{5-amino-6-[(E)-(hydroxyimino)methyl]pyrazin-2-yl}-N-(phenylmethyl)benzamide]: the negative-log IC50 (pIC50) was 5.00 to 6.00.
`Nc1ncc(-c2cccc(C(=O)NCc3ccccc3)c2)nc1C(=O)c1cc(F)cc(F)c1` [Example 578, 3-{5-amino-6-[(3,5-difluorophenyl)carbonyl]pyrazin-2-yl}-N-(phenylmethyl)benzamide]: the pIC50 is at most 5.00.
Same read-out and setting: to `CNC(=O)c1nc(-c2cccc(CN[C@H]3CCN(Cc4ccccc4)C3)c2)cnc1N` [Example 437, 3-amino-N-methyl-6-[3-({[(3S)-1-(phenylmethyl)pyrrolidin-3-yl]amino}methyl)phenyl]pyrazine-2-carboxamide] belongs 6.00 to 7.30.
The same measure, in the same setting: to `CNC(=O)c1nc(-c2cccc(CN[C@@H]3CCc4cc(-c5ccccc5)ccc4C3)c2)cnc1N` [Example 497, 3-amino-N-methyl-6-[3-({[(2R)-6-phenyl-1,2,3,4-tetrahydronaphthalen-2-yl]amino}methyl)phenyl]pyrazine-2-carboxamide] belongs 6.00 to 7.30; to `Cc1nc(-c2nc(-c3cccc(C(=O)NCc4ccccc4)c3)cnc2N)nn1C` [Example 671, 3-[5-amino-6-(1,5-dimethyl-1H-1,2,4-triazol-3-yl)pyrazin-2-yl]-N-(phenylmethyl)benzamide], 5.00 to 6.00.
Still for that read-out and setting: to `CNC(=O)c1nc(-c2cccc(CNC3CCc4c(Br)cccc43)c2)cnc1N` (stereo not shown) [Example 492, 3-amino-6-(3-{[(4-bromo-2,3-dihydro-1H-inden-1-yl)amino]methyl}phenyl)-N-methylpyrazine-2-carboxamide] belongs over 7.30; to `Nc1ncc(-c2cccc(CN[C@H]3CCc4ccccc43)c2)nc1-c1cnco1` [Example 528, 5-(3-{[(1S)-2,3-dihydro-1H-inden-1-ylamino]methyl}phenyl)-3-(1,3-oxazol-5-yl)pyrazin-2-amine], 5.00 to 6.00.
Take `Nc1ncc(-c2cccc(C(=O)NCc3ccccc3)c2)nc1C(=O)NCC(=O)O` [Example 577, N-{[3-amino-6-(3-{[(phenylmethyl)amino]carbonyl}phenyl)pyrazin-2-yl]carbonyl}glycine]: the negative logarithm of the IC50 (pIC50) was at most 5.00.
On the same count and under the same terms, to `CNC(=O)c1nc(-c2cccc(CN[C@H]3CCc4cc(-c5cccs5)ccc43)c2)cnc1N` [Example 490, 3-amino-N-methyl-6-[3-({[(1S)-5-(2-thienyl)-2,3-dihydro-1H-inden-1-yl]amino}methyl)phenyl]pyrazine-2-carboxamide] belongs over 7.30; to `CNCCCNC(=O)c1nc(-c2cccc(CN[C@H]3CCc4ccccc43)c2)cnc1N` [Example 597, 3-amino-6-(3-{[(1S)-2,3-dihydro-1H-inden-1-ylamino]methyl}phenyl)-N-[3-(methylamino)propyl]pyrazine-2-carboxamide], over 7.30; to `CN(C)CCCNC(=O)c1nc(-c2cccc(CN[C@H]3CCc4ccccc43)c2)cnc1N` [Example 585, 3-amino-6-(3-{[(1S)-2,3-dihydro-1H-inden-1-ylamino]methyl}phenyl)-N-[3-(dimethylamino)propyl]pyrazine-2-carboxamide], 5.00 to 6.00.
Consider `Nc1ncc(-c2cccc(CN[C@H]3CCc4ccccc43)c2)nc1-c1nnc[nH]1` [Example 536, 5-(3-{[(1S)-2,3-dihydro-1H-inden-1-ylamino]methyl}phenyl)-3-(4H-1,2,4-triazol-3-yl)pyrazin-2-amine], for which the pIC50 is 6.00 to 7.30.

The test is the same for the next values; noted with them: read-out: Chk1 IC50.
`CNC(=O)c1nc(-c2cccc(CNCc3ccccc3F)c2)cnc1N` [Example 399, 3-amino-6-[3-({[(2-fluorophenyl)methyl]amino}methyl)phenyl]-N-methylpyrazine-2-carboxamide]: the negative logarithm of the IC50 (pIC50) was over 7.30.
On the same count and under the same terms, to `CNC(=O)c1nc(-c2cccc(CNC(=O)c3cc(F)ccc3F)c2)cnc1N` [Example 310, 3-amino-6-[3-({[(2,5-difluorophenyl)carbonyl]amino}methyl)phenyl]-N-methylpyrazine-2-carboxamide] belongs 6.00 to 7.30; to `CCN(CCOc1cccc(-c2cnc(N)c(C(=O)NC)n2)c1)Cc1ccccc1` [Example 178, 3-amino-6-[3-({2-[ethyl(phenylmethyl)amino]ethyl}oxy)phenyl]-N-methylpyrazine-2-carboxamide], 6.00 to 7.30.
On to `CNC(=O)c1nc(-c2cccc(C(=O)N(C)Cc3ccccc3)c2)cnc1N` [Example 99, 3-amino-N-methyl-6-(3-{[methyl(phenylmethyl)amino]carbonyl}phenyl)pyrazine-2-carboxamide], for which the negative logarithm of the IC50 (pIC50) was 5.00 to 6.00.
On the same count and under the same terms, in the case of `CNC(=O)c1nc(-c2cccc(C(=O)NC3c4ccccc4-c4ccccc43)c2)cnc1N` [Example 284, 3-amino-6-{3-[(9H-fluoren-9-ylamino)carbonyl]phenyl}-N-methylpyrazine-2-carboxamide] it was at most 5.00; in that of `CNC(=O)c1nc(-c2cccc(C(=O)NCCOc3ccccc3)c2)cnc1N` [Example 198, 3-amino-N-methyl-6-[3-({[2-(phenyloxy)ethyl]amino}carbonyl)phenyl]pyrazine-2-carboxamide], 6.00 to 7.30.
On the same count and under the same terms, to `CNC(=O)c1nc(-c2cccc(C(=O)N(C)C)c2)cnc1N` [Example 86, 3-amino-6-{3-[(dimethylamino)carbonyl]phenyl}-N-methylpyrazine-2-carboxamide] belongs 5.00 to 6.00; to `CNC(=O)c1nc(-c2cccc(C(=O)NCCN3CCN(Cc4ccccc4)CC3)c2)cnc1N` [Example 199, 3-amino-N-methyl-6-{3-[({2-[4-(phenylmethyl)piperazin-1-yl]ethyl}amino)carbonyl]phenyl}pyrazine-2-carboxamide], 6.00 to 7.30.
Still for that read-out and setting: in the case of `CNC(=O)c1nc(-c2cccc(NC(=O)Cc3ccccc3)c2)cnc1N` [Example 158, 3-amino-N-methyl-6-{3-[(phenylacetyl)amino]phenyl}pyrazine-2-carboxamide] it was 6.00 to 7.30; in that of `CNC(=O)c1nc(-c2cccc(C(=O)NCc3c(N)cccc3F)c2)cnc1N` [Example 381, 3-amino-6-[3-({[(2-amino-6-fluorophenyl)methyl]amino}carbonyl)phenyl]-N-methylpyrazine-2-carboxamide], 6.00 to 7.30.
With `CNC(=O)c1nc(-c2cccc(CNCc3cccc(Oc4ccccc4)c3)c2)cnc1N` [Example 395, 3-amino-N-methyl-6-{3-[({[3-(phenyloxy)phenyl]methyl}amino)methyl]phenyl}pyrazine-2-carboxamide], the negative logarithm of the IC50 (pIC50) was 6.00 to 7.30.

The values are drawn from patent publication US7704995B2 (Exelixis, Inc., priority 2003, dated 2010).
